PubChem BioAssay (NCI)
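How tested: cells in 96-well plates exposed to compound for 48 hours at five concentrations. At the GI50, growth is halved. TGI marks complete inhibition of growth.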

What was measured:
Test in all cases: inhibition of tumour cell growth, NCI panel, 48 h
K-562 leukemia = tested on: K-562 leukemia
SK-MEL-2 melanoma = tested on: SK-MEL-2 melanoma
SNB-75 CNS = tested on: SNB-75 CNS
BT-549 breast = tested on: BT-549 breast
OVCAR-5 ovarian = tested on: OVCAR-5 ovarian
MDA-MB-435 = tested on: MDA-MB-435
SF-539 CNS = tested on: SF-539 CNS
OVCAR-3 ovarian = tested on: OVCAR-3 ovarian
KM12 colon = tested on: KM12 colon
UACC-257 melanoma = tested on: UACC-257 melanoma
MALME-3M melanoma = tested on: MALME-3M melanoma
NCI-H226 lung = tested on: NCI-H226 lung
SNB-19 CNS = tested on: SNB-19 CNS
MOLT-4 leukemia = tested on: MOLT-4 leukemia
SK-MEL-5 melanoma = tested on: SK-MEL-5 melanoma
EKVX NSCLC = tested on: EKVX NSCLC
HCT-15 colon = tested on: HCT-15 colon
NCI-H23 lung = tested on: NCI-H23 lung
NCI-H522 lung = tested on: NCI-H522 lung
T-47D breast = tested on: T-47D breast
OVCAR-8 ovarian = tested on: OVCAR-8 ovarian
SN12C renal = tested on: SN12C renal
UACC-62 melanoma = tested on: UACC-62 melanoma
SR leukemia = tested on: SR leukemia
IGROV1 ovarian = tested on: IGROV1 ovarian
SF-268 CNS = tested on: SF-268 CNS
HCC-2998 colon = tested on: HCC-2998 colon
NCI-H460 lung = tested on: NCI-H460 lung
LOX IMVI melanoma = tested on: LOX IMVI melanoma
OVCAR-4 ovarian = tested on: OVCAR-4 ovarian
DU-145 prostate = tested on: DU-145 prostate
CCRF-CEM leukemia = tested on: CCRF-CEM leukemia
COLO 205 colon = tested on: COLO 205 colon
RPMI-8226 leukemia = tested on: RPMI-8226 leukemia
HL-60(TB) leukemia = tested on: HL-60(TB) leukemia
HOP-92 NSCLC = tested on: HOP-92 NSCLC
SK-MEL-28 melanoma = tested on: SK-MEL-28 melanoma
ACHN renal = tested on: ACHN renal
A498 renal = tested on: A498 renal
SK-OV-3 ovarian = tested on: SK-OV-3 ovarian
UO-31 renal = tested on: UO-31 renal
MDA-MB-231 breast = tested on: MDA-MB-231 breast
HOP-62 NSCLC = tested on: HOP-62 NSCLC
A549 NSCLC = tested on: A549 NSCLC
SF-295 CNS = tested on: SF-295 CNS
SW-620 colon = tested on: SW-620 colon
TK-10 renal = tested on: TK-10 renal
NCI/ADR-RES ovarian = tested on: NCI/ADR-RES ovarian
CAKI-1 renal = tested on: CAKI-1 renal
U251 CNS = tested on: U251 CNS
PC-3 prostate = tested on: PC-3 prostate
786-0 renal = tested on: 786-0 renal
HCT-116 colon = tested on: HCT-116 colon
MCF7 breast = tested on: MCF7 breast
HS 578T breast = tested on: HS 578T breast
M14 melanoma = tested on: M14 melanoma
HT29 colon = tested on: HT29 colon
RXF 393 renal = tested on: RXF 393 renal

## COC(=O)c1c2c(c(C)[n+]([O-])c1C)C(=O)C=C(NCc1ccc(F)c(F)c1)C2=O
K-562 leukemia
  GI50: 0.0745 µM
SK-MEL-2 melanoma
  GI50: 0.874 µM
  TGI: 2.37 µM
SNB-75 CNS
  GI50: 1.63 µM
  TGI: 2.99 µM
BT-549 breast
  GI50: 1.12 µM
  TGI: 2.42 µM
OVCAR-5 ovarian
  GI50: 1.14 µM
  TGI: 2.49 µM
MDA-MB-435
  GI50: 0.131 µM
  TGI: 0.27 µM
SF-539 CNS
  GI50: 0.487 µM
  TGI: 1.67 µM
OVCAR-3 ovarian
  GI50: 0.256 µM
  TGI: 0.766 µM
KM12 colon
  GI50: 0.28 µM
  TGI: 1.71 µM
UACC-257 melanoma
  GI50: 0.225 µM
  TGI: 0.657 µM
MALME-3M melanoma
  GI50: 0.139 µM
  TGI: 0.301 µM
NCI-H226 lung
  GI50: 1.44 µM
  TGI: 3.27 µM
SNB-19 CNS
  GI50: 1.08 µM
  TGI: 2.29 µM
MOLT-4 leukemia
  GI50: 0.588 µM
  TGI: 2.12 µM
SK-MEL-5 melanoma
  GI50: 0.167 µM
  TGI: 0.308 µM
EKVX NSCLC
  GI50: 0.685 µM
  TGI: 2.26 µM
HCT-15 colon
  GI50: 0.235 µM
  TGI: 1.44 µM
NCI-H23 lung
  GI50: 0.498 µM
  TGI: 2.59 µM
NCI-H522 lung
  GI50: 0.286 µM
  TGI: 1.35 µM
T-47D breast
  GI50: 0.127 µM
  TGI: 1.02 µM
OVCAR-8 ovarian
  GI50: 0.291 µM
  TGI: 1.13 µM
SN12C renal
  GI50: 0.294 µM
  TGI: 1.03 µM
UACC-62 melanoma
  GI50: 0.0618 µM
  TGI: 0.612 µM
SR leukemia
  GI50: 0.373 µM
  TGI: 4.06 µM
IGROV1 ovarian
  GI50: 0.36 µM
  TGI: 1.68 µM
SF-268 CNS
  GI50: 1.07 µM
  TGI: 3.32 µM
HCC-2998 colon
  GI50: 0.359 µM
  TGI: 1.43 µM
NCI-H460 lung
  GI50: 0.45 µM
  TGI: 1.79 µM
LOX IMVI melanoma
  GI50: 0.0825 µM
  TGI: 1.39 µM
OVCAR-4 ovarian
  GI50: 0.177 µM
  TGI: 0.666 µM
DU-145 prostate
  GI50: 1.06 µM
  TGI: 2.28 µM
CCRF-CEM leukemia
  GI50: 0.409 µM
  TGI: 2.47 µM
COLO 205 colon
  GI50: 0.257 µM
  TGI: 0.713 µM
RPMI-8226 leukemia
  GI50: 0.783 µM
  TGI: 3.23 µM
HL-60(TB) leukemia
  GI50: 0.302 µM
  TGI: 1.02 µM
HOP-92 NSCLC
  GI50: 1.56 µM
  TGI: 3.61 µM
SK-MEL-28 melanoma
  GI50: 0.84 µM
  TGI: 2.43 µM
ACHN renal
  GI50: 0.572 µM
  TGI: 2.01 µM
A498 renal
  GI50: 0.931 µM
  TGI: 2.43 µM
SK-OV-3 ovarian
  GI50: 1.86 µM
  TGI: 4.06 µM
UO-31 renal
  GI50: 1.11 µM
  TGI: 2.35 µM
MDA-MB-231 breast
  GI50: 0.251 µM
  TGI: 1.83 µM
HOP-62 NSCLC
  GI50: 0.86 µM
  TGI: 2.5 µM
A549 NSCLC
  GI50: 0.48 µM
  TGI: 2.2 µM
SF-295 CNS
  GI50: 0.437 µM
  TGI: 1.59 µM
SW-620 colon
  GI50: 0.254 µM
  TGI: 1.36 µM
TK-10 renal
  GI50: 2.06 µM
  TGI: 4.82 µM
NCI/ADR-RES ovarian
  GI50: 0.313 µM
  TGI: 1.65 µM
CAKI-1 renal
  GI50: 0.313 µM
  TGI: 2.13 µM
U251 CNS
  GI50: 0.458 µM
  TGI: 1.72 µM
PC-3 prostate
  GI50: 0.279 µM
  TGI: 2.42 µM
786-0 renal
  GI50: 1.35 µM
  TGI: 3.58 µM
HCT-116 colon
  GI50: 0.256 µM
  TGI: 0.902 µM
MCF7 breast
  GI50: 0.255 µM
  TGI: 0.891 µM
HS 578T breast
  GI50: 1.89 µM
  TGI: 6.17 µM
M14 melanoma
  GI50: 0.274 µM
  TGI: 1.38 µM
HT29 colon
  GI50: 0.304 µM
  TGI: 3.17 µM
RXF 393 renal
  GI50: 1.05 µM
  TGI: 2.39 µM

## COc1ccccc1NC(=O)n1nc(N)c2ccccc21
K-562 leukemia
  GI50: 99.8 µM
  TGI: > 100 µM
SK-MEL-2 melanoma
  GI50: > 100 µM
  TGI: > 100 µM
SNB-75 CNS
  GI50: 37 µM
  TGI: > 100 µM
BT-549 breast
  GI50: 39.3 µM
  TGI: > 100 µM
OVCAR-5 ovarian
  GI50: > 100 µM
  TGI: > 100 µM
MDA-MB-435
  GI50: > 100 µM
  TGI: > 100 µM
SF-539 CNS
  GI50: 58.4 µM
  TGI: > 100 µM
OVCAR-3 ovarian
  GI50: > 100 µM
  TGI: > 100 µM
KM12 colon
  GI50: 47.4 µM
  TGI: > 100 µM
UACC-257 melanoma
  GI50: > 100 µM
  TGI: > 100 µM
MALME-3M melanoma
  GI50: > 100 µM
  TGI: > 100 µM
NCI-H226 lung
  GI50: > 74.7 µM
  TGI: > 100 µM
SNB-19 CNS
  GI50: > 100 µM
  TGI: > 100 µM
MOLT-4 leukemia
  GI50: 67.4 µM
  TGI: > 100 µM
SK-MEL-5 melanoma
  GI50: > 87.9 µM
  TGI: > 100 µM
EKVX NSCLC
  GI50: 55.9 µM
  TGI: > 100 µM
HCT-15 colon
  GI50: 63.6 µM
  TGI: > 100 µM
NCI-H23 lung
  GI50: > 100 µM
  TGI: > 100 µM
NCI-H522 lung
  GI50: 53.9 µM
  TGI: > 100 µM
T-47D breast
  GI50: 12.1 µM
  TGI: > 100 µM
OVCAR-8 ovarian
  GI50: > 78.3 µM
  TGI: > 100 µM
SN12C renal
  GI50: > 100 µM
  TGI: > 100 µM
UACC-62 melanoma
  GI50: > 100 µM
  TGI: > 100 µM
SR leukemia
  GI50: 92.4 µM
  TGI: > 100 µM
IGROV1 ovarian
  GI50: 14.7 µM
  TGI: > 100 µM
SF-268 CNS
  GI50: > 48.1 µM
  TGI: > 100 µM
HCC-2998 colon
  GI50: > 81.4 µM
  TGI: > 100 µM
NCI-H460 lung
  GI50: 47.6 µM
  TGI: > 100 µM
LOX IMVI melanoma
  GI50: 82 µM
  TGI: > 100 µM
OVCAR-4 ovarian
  GI50: > 68.1 µM
  TGI: > 100 µM
DU-145 prostate
  GI50: > 100 µM
  TGI: > 100 µM
CCRF-CEM leukemia
  GI50: > 100 µM
  TGI: > 100 µM
COLO 205 colon
  GI50: > 100 µM
  TGI: > 100 µM
RPMI-8226 leukemia
  GI50: 48.7 µM
  TGI: > 100 µM
HL-60(TB) leukemia
  GI50: 55 µM
  TGI: > 100 µM
HOP-92 NSCLC
  GI50: 22.7 µM
  TGI: 76.5 µM
SK-MEL-28 melanoma
  GI50: > 100 µM
  TGI: > 100 µM
ACHN renal
  GI50: > 81.7 µM
  TGI: > 100 µM
A498 renal
  GI50: > 68.7 µM
  TGI: > 100 µM
SK-OV-3 ovarian
  GI50: > 100 µM
  TGI: > 100 µM
UO-31 renal
  GI50: > 63.3 µM
  TGI: > 100 µM
MDA-MB-231 breast
  GI50: 66 µM
  TGI: > 100 µM
HOP-62 NSCLC
  GI50: > 69.3 µM
  TGI: > 100 µM
A549 NSCLC
  GI50: > 86.9 µM
  TGI: > 100 µM
SF-295 CNS
  GI50: 52.1 µM
  TGI: > 100 µM
SW-620 colon
  GI50: > 100 µM
  TGI: > 100 µM
TK-10 renal
  GI50: 64.2 µM
  TGI: > 100 µM
NCI/ADR-RES ovarian
  GI50: 87.4 µM
  TGI: > 100 µM
CAKI-1 renal
  GI50: > 100 µM
  TGI: > 100 µM
U251 CNS
  GI50: 74.1 µM
  TGI: > 100 µM
PC-3 prostate
  GI50: 64.1 µM
  TGI: > 100 µM
786-0 renal
  GI50: > 84 µM
  TGI: > 100 µM
HCT-116 colon
  GI50: > 71.7 µM
  TGI: > 100 µM
MCF7 breast
  GI50: 0.0842 µM
  TGI: 4.32 µM
HS 578T breast
  GI50: 36.3 µM
  TGI: > 100 µM
M14 melanoma
  GI50: > 100 µM
  TGI: > 100 µM
HT29 colon
  GI50: > 73.4 µM
  TGI: > 100 µM
RXF 393 renal
  GI50: 36.7 µM
  TGI: > 100 µM
